Measurements as given in patent US20220387602A1, “BIFUNCTIONAL DEGRADERS AND THEIR METHODS OF USE” (NOVARTIS AG, priority 2019, published 2022).

Tests used:
[1] = molecular target: T1, CRBN (Homo sapiens, UniProt Q96SW2); test: CRBN displacement assay Format 1 (fluorescence polarization, BodipyFL-lenalidomide probe Compound HH); assay type: binding
Protocol: (§1) Compounds were tested in the following biochemical and cellular assays.
(§2) BodipyFL conjugated lenalidomide compound HH was used as a fluorescent probe. […] Protein and substrate were diluted in assay buffer.
All protein and probe containing solutions were handled in ‘Maxymum Recovery’ tubes (Axygen Scientific Inc., Union City, USA). […] For the plate measurements a PHERAstar reader (BMG Labtech, Offenburg, Germany) was used. The instrument was equipped with a specific optics module containing filters and dichoic mirrors for measuring the fluorescence polarization-type assay. With this module, the fluorescence of the Bodipy FL-based probe was excited at 485 nm and the emissions of the product were measured at 520 nm. The fluorescence in each well was excited by 10 flashes per measurement.
For the determination of AC50 values, the assays were performed at room temperature in 384-well plates with a total assay volume of 10.1 μL per well. The test compound was dissolved in 90% (v/v) DMSO/water. For the assays, 100 nL of the 90% (v/v) DMSO/water solution or compound solution were added per well, followed by the addition of 5 μL protein solution (protein in 1× assay buffer).
(§3) The final assay concentration of the protein was nominally 100 nM. After 45 minutes of pre-incubation at room temperature, the competition for binding was started by the addition of 5 μL probe solution (probe dissolved in assay buffer). The final concentration of the probes in the assays was 5 nM. After the addition of the probe solution, the final DMSO concentration in the assay was 0.9% (v/v). The effect of the probe on the pre-established compound-protein complex equilibrium was determined after 45 minutes (t=45 min). The AC50 value was calculated from the plot of percentage of protein saturation versus the test compound concentration by a logistics fit according to: y=A^2+(A^1−A^2)/(1+(x/AC50)^p), where y is the %-saturation value at the test compound concentration, x. A^1 is the lowest saturation value, i.e., 0%, and A^2 the maximum saturation value, i.e. 100%. The exponent, p, is the Hill coefficient.

[2] = molecular target: T1, CRBN; test: CRBN displacement assay Format 2a (fluorescence polarization, 1536-well, Envision reader); assay type: binding
Protocol: as §1, §2
The fluorescence of the Bodipy FL-based probe was excited at 480 nm and the emissions of the product were measured at 535 nm. The fluorescence in each well was excited by 30 flashes per measurement.
For the determination of AC50 values, assays were performed at room temperature in 1536-well plates with a total assay volume of 6.03 μL per well. The test compounds were dissolved and diluted in 100% DMSO. For the assays, 30 nL of DMSO or compound solution were added per well, followed by the addition of 3 μL protein solution (80 nM protein in 1× assay buffer).
as §3, with “nominally 40” for “nominally 100”, “of 3” for “of 5”, “solution (10 nM probe” for “solution (probe”, “the probe” for “the probes”, “was 0.5%” for “was 0.9%”

[3] = concentration at which 50% of reference probe Compound HH is displaced, 100 nM protein, 5 nM probe, Table 4, read-out: CRBN AC50 [μM] Format 1
[4] = concentration at which 50% of reference probe Compound HH is displaced, 40 nM protein, 5 nM probe, read-out: CRBN AC50 [μM] Format 2a

T1 sequence (Q96SW2 whole entry): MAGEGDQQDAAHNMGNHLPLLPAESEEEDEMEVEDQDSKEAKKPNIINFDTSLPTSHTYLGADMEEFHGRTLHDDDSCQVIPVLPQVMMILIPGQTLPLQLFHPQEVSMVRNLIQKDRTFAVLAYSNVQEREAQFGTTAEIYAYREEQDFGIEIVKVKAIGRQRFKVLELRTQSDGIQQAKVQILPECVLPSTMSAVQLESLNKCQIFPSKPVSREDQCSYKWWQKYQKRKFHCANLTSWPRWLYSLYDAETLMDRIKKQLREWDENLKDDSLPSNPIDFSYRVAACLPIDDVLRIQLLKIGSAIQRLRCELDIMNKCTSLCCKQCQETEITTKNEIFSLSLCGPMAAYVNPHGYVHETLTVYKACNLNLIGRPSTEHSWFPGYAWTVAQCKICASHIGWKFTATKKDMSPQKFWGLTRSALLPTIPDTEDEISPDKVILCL

Structure (SMILES)	AC50 [1, 3] [µM]	AC50 [2, 4] [µM]	AC50 [1] [µM]	AC50 [2] [µM]
O=CCOc1cccc(N2CCC(=O)NC2=O)c1 [ILB-18, 2-(3-(2,4-Dioxotetrahydropyrimidin-1(2H)-yl)phenoxy)acetaldehyde]	11.2	3.79		
C#Cc1cccc(N2CCC(=O)NC2=O)c1 [ILB-33, 1-(3-ethynylphenyl)dihydropyrimidine-2,4(1H,3H)-dione]	6.52	2.68		
C=CCOc1cccc(N2CCC(=O)NC2=O)c1 [ILB-34, 1-(3-(allyloxy)phenyl)dihydropyrimidine-2,4(1H,3H)-dione]	3.65	1.91		
O=C1CCN(c2c(F)cc(C#CC3CCNCC3)cc2F)C(=O)N1 [ILB-38, 1-(2,6-difluoro-4-(piperidin-4-ylethynyl)phenyl)dihydropyrimidine-2,4(1H,3H)-dione]	8.44	6.02		
O=C1CCN(c2ccc(C#CCN3CCOC4(CCNCC4)C3)cc2)C(=O)N1 [ILB-40, 1-(4-(3-(1-oxa-4,9-diazaspiro[5.5]undecan-4-yl)prop-1-yn-1-yl)phenyl)dihydropyrimidine-2,4(1H,3H)-dione]	12.3	3.45		
CC(C)(C)OC(=O)NCC#Cc1cc(F)c(N2CCC(=O)NC2=O)c(F)c1 [ILB-43, tert-Butyl (3-(4-(2,4-dioxotetrahydropyrimidin-1(2H)-yl)-3,5-difluorophenyl)prop-2-yn-1-yl)carbamate]			2.99	2.93
Cc1ccc(S(=O)(=O)NCCCCCN)cc1N1CCC(=O)NC1=O [ILB-53, N-(5-aminopentyl)-3-(2,4-dioxotetrahydropyrimidin-1(2H)-yl)-4-methylbenzenesulfonamide]	14.9	2.16		
O=C1CCN(c2ccc(OCC(=O)N3CCC(OC4CCNCC4)CC3)cc2)C(=O)N1 [ILB-55, 1-(4-(2-Oxo-2-(4-(piperidin-4-yloxy)piperidin-1-yl)ethoxy)phenyl)dihydropyrimidine-2,4(1H,3H)-dione]			14.4	4.04
COc1ccc(C(=O)N2CCC(OC3CCNCC3)CC2)cc1N1CCC(=O)NC1=O [ILB-59, 1-(2-methoxy-5-(4-(piperidin-4-yloxy)piperidine-1-carbonyl)phenyl)dihydropyrimidine-2,4(1H,3H)-dione]			1.36	0.34

Now from value to compound:

AC50 [1, 3] [µM]	AC50 [2, 4] [µM]	AC50 [1] [µM]	AC50 [2] [µM]	Structure (SMILES)
11.7	7.34			O=C(O)COc1cccc(N2CCC(=O)NC2=O)c1 [ILB-16, 2-(3-(2,4-Dioxotetrahydropyrimidin-1(2H)-yl)phenoxy)acetic acid]
2.51	0.8			Cc1ccc(OCC=O)cc1N1CCC(=O)NC1=O [ILB-19, 2-(3-(2,4-dioxotetrahydropyrimidin-1(2H)-yl)-4-methylphenoxy)acetaldehyde]
5.37	2.01			Cc1ccc(OCC(=O)O)cc1N1CCC(=O)NC1=O [ILB-20, 2-(3-(2,4-Dioxotetrahydropyrimidin-1(2H)-yl)-4-methylphenoxy)acetic acid]
2.85	0.68			Cc1ccc(C(=O)O)cc1N1CCC(=O)NC1=O [ILB-24, 3-(2,4-dioxotetrahydropyrimidin-1(2H)-yl)-4-methylbenzoic acid]
1.98	0.48			O=C1CCN(c2cc(C(=O)O)ccc2Cl)C(=O)N1 [ILB-25, 4-chloro-3-(2,4-dioxotetrahydropyrimidin-1(2H)-yl)benzoic acid]
2.92	1.26			COc1ccc(C(=O)O)cc1N1CCC(=O)NC1=O [ILB-26, 3-(2,4-dioxotetrahydropyrimidin-1(2H)-yl)-4-methoxybenzoic acid]
3.03	0.74			O=C1CCN(c2cc(C(=O)O)ccc2F)C(=O)N1 [ILB-27, 3-(2,4-dioxotetrahydropyrimidin-1(2H)-yl)-4-fluorobenzoic acid]
3.41	1.3			O=C1CCN(c2cccc(C(=O)O)c2)C(=O)N1 [ILB-28, 3-(2,4-dioxotetrahydropyrimidin-1(2H)-yl)benzoic acid]
9.64	5.1			O=C1CCN(c2ccc(C(=O)O)cc2)C(=O)N1 [ILB-31]
		1.26	0.23	COc1ccc(C(=O)N2CCC3(CCNCC3)CC2)cc1N1CCC(=O)NC1=O [ILB-56, 1-(2-methoxy-5-(3,9-diazaspiro[5.5]undecane-3-carbonyl)phenyl)dihydropyrimidine-2,4(1H,3H)-dione]
12.3	2.38			COc1cc(C(=O)O)ccc1N1CCC(=O)NC1=O [ILB-81, 4-(2,4-dioxotetrahydropyrimidin-1(2H)-yl)-3-methoxybenzoic acid]
